According to US20260378560A1, “APPROACHES TO DESIGNING AND PERFORMING COMPRESSED BIOLOGICAL EXPERIMENTS AND SYSTEMS FOR IMPLEMENTING THE SAME” (EXVIVO LABS INC., priority 2023, published 2026):

Assays:
MOLT-4 [1] = test: Cell viability (CellTiter Glo), library of cancer drugs, individual or sample compression with randomized (alphabetical) pools, MOLT-4; format: cell-based; conditions: for DRS: MOLT-4, None (measured individually); for DRS from deconvolution: MOLT-4, Samples, 7 Pick 3 randomized (alphabetical) sample pools
In short: (§1)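 Cells cultured with each drug individually at 1 nM–10 μM; viability by ATP luminescence (CellTiter Glo) to build dose-response curves and DRS. Samples read singly or pooled alphabetically (each drug in 3 of 7 pools), with pooled DRS recovered by additivity-based SUM deconvolution.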

REH [2] = test: Cell viability (CellTiter Glo), compressed perturbation pools with informed pool design, SUM-based deconvolution, REH; set-up: scale not given here
Protocol: (§2) Total cell viability was measured for each sample using an ATP-based luminescence assay (i.e., CellTiter Glo). Each cancer drug was then screened at multiple concentrations ranging from one nM to ten μM in order to generate a dose-response curve and calculate a DRS for each cancer cell line.
(§3) Each cancer drug was cultured with target cells individually. At the end of the screen, samples were either analyzed individually or compressed into pools for analysis. The library was compressed alphabetically into ten cohorts, each of which contained seven cancer drugs present in three out of the seven pools, as shown in Table VII. Said another way, the screening platform 210 generated a “7 pick 3” compressed library by assigning the cancer drugs among different pools. […] The library was also compressed into ten cohorts with pools designed based on information known about each cancer drug, as shown in Table VIII. After cell viability measurement and DRS calculation, the DRS of each cancer drug in the samples generated based on the pools were deconvoluted and compared to the DRS for each cancer drug measured individually.
(§4) In parallel to the exemplary sample compression screen covered in Table VII, perturbations were compressed into pools and then screened. The pools were designed using drug class as a feature with two compression rules (or simply “rules”). The first rule required that drugs from the same class be separated into different cohorts (i.e., mutually exclusive groups of pools). The second rule separated PI3K pathway inhibitors from MAPK pathway inhibitors, as inhibiting these pathways in parallel is known to be synergistic but has not been clinically effective due to dose-limiting toxicities. A benefit of compressing perturbations is the ability to measure additive, antagonistic, and synergistic effects between drugs in the same pool. However, these effects can negatively impact deconvolution of individual drug effects. Therefore, combinations of drugs for which evidence of clinical toxicity exists can be assigned to different pools in accordance with an informed pooling operation. As new preclinical or clinical evidence of toxic combinations becomes available, the rules implemented by the screening platform 210—and more specifically, its algorithm for compressing members of a library—can be updated accordingly.
(§5) In SUM-based deconvolution, an assumption of additivity is used to quantify the individual effects of each perturbation on each target. Additivity implies that each perturbation effect on each target is positively contributing to the overall effect measured for that pool. This is an accurate assumption for certain experiments, such as when targets or samples are compressed. When targets are pooled—or when samples containing different targets are pooled—the effect of each perturbation on each individual target is diluted. In other words, each perturbation has an isolated effect on a target in culture, and the sum total of the isolated effects are measured when pooled. Therefore, SUM-based deconvolution breaks down the sum total measured for a pool and assigns estimated fractional effects to each compressed perturbation or target in the pool. The screening platform 210 used SUM-based deconvolution for all target and sample compression experiments described above.
(§6) As mentioned above, SUM-based deconvolution uses the overlapping pool design to identify relative relationships and ranges for the individual effects of each perturbation. When the overlapping pool design is not sufficient to solve for the polynomials representing perturbation effects, an anchor perturbation can be identified by the screening platform 210 based on rank order and assigned an effect size of zero. The anchor perturbation may be the lowest ranked perturbation in the rank order. This then enables the screening platform 210 to solve for the polynomials for the remaining perturbations.

REH [3] = test: Cell viability (CellTiter Glo), library of cancer drugs, individual or sample compression with randomized (alphabetical) pools, REH; format: cell-based; conditions: REH; for DRS: None (measured individually); for DRS from deconvolution: Samples, 7 Pick 3 randomized (alphabetical) sample pools
In short: as §1

MOLT-4 [4] = test: Cell viability (CellTiter Glo), compressed perturbation pools with informed pool design, SUM-based deconvolution, MOLT-4; set-up: scale not given here
Protocol: as §2, §3, §4, §5, §6

REH [5] = test: Cell viability (CellTiter Glo), compressed perturbation pools with informed pool design, MAX-based deconvolution, REH; conditions: for DRS / DRS from MAX-based deconvolution / DRS, REH, MAX / top hit of cohort (deconvoluted effect size): REH; for DRS: None (measured individually), informed pool design table; for DRS from MAX-based deconvolution: Samples, 7 Pick 3 informed perturbation pools; for DRS, REH, MAX: compressed perturbation pools, informed pool design, MAX-based deconvolution; for top hit of cohort (deconvoluted effect size): informed perturbation pools;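 as to DRS from MAX-based deconvolution: higher DRS means a larger drug effect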
In short: (§7)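 Drugs dosed from 1 nM to 10 μM with ATP-luminescence viability, giving a DRS per drug. Pools designed by drug class, with same-class drugs in separate cohorts and clinically toxic pairs kept apart.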

MOLT-4 [6] = test: Cell viability (CellTiter Glo), compressed perturbation pools with informed pool design, MAX-based deconvolution, MOLT-4; conditions: for DRS: MOLT-4, None (measured individually), informed pool design table; for DRS from MAX-based deconvolution: MOLT-4, Samples, 7 Pick 3 informed perturbation pools; for DRS, MOLT-4, MAX: compressed perturbation pools, informed pool design, MAX-based deconvolution; for top hit of cohort (deconvoluted effect size): MOLT, informed perturbation pools;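 as to DRS from MAX-based deconvolution: higher DRS means a larger drug effect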
In short: as §7

## CO[C@H]1C[C@@H]2CC[C@@H](C)[C@@](O)(O2)C(=O)C(=O)N2CCCC[C@H]2C(=O)O[C@H]([C@H](C)C[C@@H]2CC[C@@H](OCCO)[C@H](OC)C2)CC(=O)[C@H](C)/C=C(\C)[C@@H](O)[C@@H](OC)C(=O)[C@H](C)C[C@H](C)/C=C/C=C/C=C/1C [Everolimus]
MOLT-4 [1]
  DRS: 2.19
  DRS from deconvolution: 2.35
REH [2]
  DRS, REH, SUM: 9.02
REH [3]
  DRS: 7.39
  DRS from deconvolution: 7.70
MOLT-4 [4]
  DRS, MOLT-4, SUM: 1.42
REH [5]
  effect on REH relative to MOLT cell line: much larger effects on the REH cell line
  DRS: 0.23
  DRS from MAX-based deconvolution: 0.00
  DRS, REH, MAX: 9.02
MOLT-4 [6]
  DRS: 0.23
  DRS from MAX-based deconvolution: 0.00
  DRS, MOLT-4, MAX: 2.51

## O=C(/C=C\n1cnc(-c2cc(C(F)(F)F)cc(C(F)(F)F)c2)n1)NNc1cnccn1 [Selinexor]
MOLT-4 [1]
  DRS: 24.71
  DRS from deconvolution: 25.16
REH [2]
  DRS, REH, SUM: 26.41
REH [3]
  DRS: 21.81
  DRS from deconvolution: 21.40
MOLT-4 [4]
  DRS, MOLT-4, SUM: 24.24
REH [5]
  DRS: 2.30
  DRS from MAX-based deconvolution: 2.51
  top hit of cohort (deconvoluted effect size): top hit
  DRS, REH, MAX: 23.72
MOLT-4 [6]
  top hit of cohort (deconvoluted effect size): top hit
  DRS: 0.00
  DRS from MAX-based deconvolution: 0.00
  DRS, MOLT-4, MAX: 24.91

## COc1cc2nccc(Oc3ccc(NC(=O)NC4CC4)c(Cl)c3)c2cc1C(N)=O [Lenvatinib]
MOLT-4 [1]
  DRS: 0.74
  DRS from deconvolution: 0.77
REH [2]
  DRS, REH, SUM: 0.00
REH [3]
  DRS: 0.14
  DRS from deconvolution: 0.00
MOLT-4 [4]
  DRS, MOLT-4, SUM: 0.89
REH [5]
  DRS: 0.00
  DRS from MAX-based deconvolution: 0.00
  DRS, REH, MAX: 0.00
MOLT-4 [6]
  DRS: 0.00
  DRS from MAX-based deconvolution: 0.00
  DRS, MOLT-4, MAX: 0.00

## Cc1ccc(Nc2nccc(N(C)c3ccc4c(C)n(C)nc4c3)n2)cc1S(N)(=O)=O [Pazopanib]
MOLT-4 [1]
  DRS: 0.68
  DRS from deconvolution: 0.00
REH [2]
  DRS, REH, SUM: 8.02
REH [3]
  DRS: 5.88
  DRS from deconvolution: 5.90
MOLT-4 [4]
  DRS, MOLT-4, SUM: 2.41
REH [5]
  DRS: 3.93
  DRS from MAX-based deconvolution: 4.01
  DRS, REH, MAX: 7.06
MOLT-4 [6]
  DRS: 3.50
  DRS from MAX-based deconvolution: 0.00
  DRS, MOLT-4, MAX: 5.39

## CO[C@H]1C[C@@H]2CC[C@@H](C)[C@@](O)(O2)C(=O)C(=O)N2CCCC[C@H]2C(=O)O[C@H]([C@H](C)C[C@@H]2CC[C@@H](OC(=O)C(C)(CO)CO)[C@H](OC)C2)CC(=O)[C@H](C)/C=C(\C)[C@@H](O)[C@@H](OC)C(=O)[C@H](C)C[C@H](C)/C=C/C=C/C=C/1C [Temsirolimus]
MOLT-4 [1]
  DRS: 2.99
  DRS from deconvolution: 3.21
REH [2]
  DRS, REH, SUM: 9.71
REH [3]
  DRS: 8.19
  DRS from deconvolution: 8.71
MOLT-4 [4]
  DRS, MOLT-4, SUM: 2.54
REH [5]
  effect on REH relative to MOLT cell line: much larger effects on the REH cell line
  DRS: 8.19
  DRS from MAX-based deconvolution: 9.23
  top hit of cohort (deconvoluted effect size): top hit
  DRS, REH, MAX: 9.23
MOLT-4 [6]
  top hit of cohort (deconvoluted effect size): top hit
  DRS: 2.99
  DRS from MAX-based deconvolution: 3.88
  DRS, MOLT-4, MAX: 3.88
